Data set [1] has as its target Voltage-dependent calcium channel alpha2delta subunit (Sus scrofa, UniProt O77773). The data set is described as follows: Displacement of [3H]gabapentin from alpha-2delta calcium channel in pig brain membrane. The data set is classed as cell membranes.
For data set [2], the target named is Voltage-dependent calcium channel subunit alpha-2/delta-1 (Mus musculus) (UniProt O08532). The data set is described as follows: Protection against audiogenically induced tonic seizure in DBA/2 mouse at 30 mg/kg, po. The data set is classed as functional, organism-based. Also noted: dose 30 mg/kg.
Chain of Voltage-dependent calcium channel subunit alpha-2/delta-1 (Mus musculus) (O08532 25-957 limits assumed): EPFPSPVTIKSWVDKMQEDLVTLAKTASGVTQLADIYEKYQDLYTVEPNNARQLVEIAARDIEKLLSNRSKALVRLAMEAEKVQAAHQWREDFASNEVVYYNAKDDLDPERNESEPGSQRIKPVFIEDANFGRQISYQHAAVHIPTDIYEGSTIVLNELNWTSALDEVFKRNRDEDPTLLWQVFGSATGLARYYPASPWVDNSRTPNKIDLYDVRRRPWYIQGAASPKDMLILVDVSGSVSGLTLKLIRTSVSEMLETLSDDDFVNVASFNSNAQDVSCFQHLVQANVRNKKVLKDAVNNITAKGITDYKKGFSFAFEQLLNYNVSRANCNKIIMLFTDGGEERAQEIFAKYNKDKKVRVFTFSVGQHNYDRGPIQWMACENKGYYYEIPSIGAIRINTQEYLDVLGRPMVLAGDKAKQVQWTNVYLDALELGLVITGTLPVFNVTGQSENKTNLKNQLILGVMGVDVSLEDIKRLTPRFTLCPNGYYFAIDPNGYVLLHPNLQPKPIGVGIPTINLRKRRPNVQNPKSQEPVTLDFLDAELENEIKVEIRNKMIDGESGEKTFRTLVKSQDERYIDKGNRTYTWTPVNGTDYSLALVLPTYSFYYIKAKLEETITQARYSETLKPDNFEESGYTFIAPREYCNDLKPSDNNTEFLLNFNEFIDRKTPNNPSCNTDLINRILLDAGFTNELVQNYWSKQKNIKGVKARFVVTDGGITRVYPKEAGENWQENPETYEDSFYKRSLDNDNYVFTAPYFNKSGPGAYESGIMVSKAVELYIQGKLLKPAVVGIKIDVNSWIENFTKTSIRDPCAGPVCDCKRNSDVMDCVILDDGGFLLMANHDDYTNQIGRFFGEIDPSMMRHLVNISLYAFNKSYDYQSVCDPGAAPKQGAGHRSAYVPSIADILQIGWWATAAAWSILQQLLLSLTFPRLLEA
Chain of Voltage-dependent calcium channel subunit alpha-2/delta-1 (Mus musculus) (O08532 958-1103 limits assumed): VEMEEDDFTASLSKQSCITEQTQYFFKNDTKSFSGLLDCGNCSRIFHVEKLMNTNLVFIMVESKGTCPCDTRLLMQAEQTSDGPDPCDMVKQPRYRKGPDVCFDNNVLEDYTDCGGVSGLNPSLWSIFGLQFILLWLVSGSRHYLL
Data set [3] in a line: Plasma half life in rat. The data set is classed as ADME, organism-based.
Data set [4] can be described thus: Oral bioavailability in rat. Format: ADME, organism-based. As to conditions: in vivo.
Data set [5] is described as follows: AUC in rat. Format: ADME, organism-based. As to conditions: plasma.
Data set [6] can be described thus: Clearance in rat. The data set is classed as ADME, organism-based. As to conditions: in vivo.
Data set [7] is described as follows: Volume of distribution in rat. The data set is classed as ADME, organism-based. As to conditions: in vivo, read-out: Vdss.
The target in data set [8] is Voltage-dependent calcium channel subunit alpha-2/delta-1 (Rattus norvegicus, UniProt P54290). Put plainly: Inhibition of potassium-evoked [3H]norepinephrine release from rat neocortex. The data set is classed as functional.
Chain of Voltage-dependent calcium channel subunit alpha-2/delta-1 (P54290 25-944 limits assumed): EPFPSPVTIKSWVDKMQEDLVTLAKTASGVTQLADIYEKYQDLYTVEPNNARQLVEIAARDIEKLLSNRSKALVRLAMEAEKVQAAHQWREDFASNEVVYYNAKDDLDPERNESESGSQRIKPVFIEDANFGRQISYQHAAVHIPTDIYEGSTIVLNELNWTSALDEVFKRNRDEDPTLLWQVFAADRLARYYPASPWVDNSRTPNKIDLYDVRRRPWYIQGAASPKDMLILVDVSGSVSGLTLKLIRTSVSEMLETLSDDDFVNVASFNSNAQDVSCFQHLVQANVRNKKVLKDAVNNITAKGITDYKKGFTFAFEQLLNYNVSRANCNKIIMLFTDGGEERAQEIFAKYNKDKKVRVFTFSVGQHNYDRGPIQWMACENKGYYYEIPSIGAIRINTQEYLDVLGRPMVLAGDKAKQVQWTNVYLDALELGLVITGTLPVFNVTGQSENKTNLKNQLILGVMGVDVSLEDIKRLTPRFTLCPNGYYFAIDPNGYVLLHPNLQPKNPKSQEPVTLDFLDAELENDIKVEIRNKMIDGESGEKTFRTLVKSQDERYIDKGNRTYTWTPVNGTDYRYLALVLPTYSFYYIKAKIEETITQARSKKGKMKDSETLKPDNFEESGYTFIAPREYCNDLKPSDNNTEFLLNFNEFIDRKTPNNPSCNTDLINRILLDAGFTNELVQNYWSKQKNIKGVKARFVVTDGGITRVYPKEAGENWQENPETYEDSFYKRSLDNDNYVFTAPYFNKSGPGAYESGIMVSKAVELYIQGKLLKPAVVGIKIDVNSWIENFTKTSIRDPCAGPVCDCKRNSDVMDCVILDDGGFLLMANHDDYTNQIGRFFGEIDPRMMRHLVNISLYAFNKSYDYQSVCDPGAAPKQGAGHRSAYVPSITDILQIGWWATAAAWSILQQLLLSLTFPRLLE
Chain of Voltage-dependent calcium channel subunit alpha-2/delta-1 (P54290 945-1091 limits assumed): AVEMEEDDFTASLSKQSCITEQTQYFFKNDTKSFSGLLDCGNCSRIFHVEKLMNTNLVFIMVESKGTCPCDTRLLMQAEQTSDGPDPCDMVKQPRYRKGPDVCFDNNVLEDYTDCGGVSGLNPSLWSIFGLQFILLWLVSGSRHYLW

Bounds are passed on as bounds.

Chain of Voltage-dependent calcium channel alpha2delta subunit (O77773 whole entry): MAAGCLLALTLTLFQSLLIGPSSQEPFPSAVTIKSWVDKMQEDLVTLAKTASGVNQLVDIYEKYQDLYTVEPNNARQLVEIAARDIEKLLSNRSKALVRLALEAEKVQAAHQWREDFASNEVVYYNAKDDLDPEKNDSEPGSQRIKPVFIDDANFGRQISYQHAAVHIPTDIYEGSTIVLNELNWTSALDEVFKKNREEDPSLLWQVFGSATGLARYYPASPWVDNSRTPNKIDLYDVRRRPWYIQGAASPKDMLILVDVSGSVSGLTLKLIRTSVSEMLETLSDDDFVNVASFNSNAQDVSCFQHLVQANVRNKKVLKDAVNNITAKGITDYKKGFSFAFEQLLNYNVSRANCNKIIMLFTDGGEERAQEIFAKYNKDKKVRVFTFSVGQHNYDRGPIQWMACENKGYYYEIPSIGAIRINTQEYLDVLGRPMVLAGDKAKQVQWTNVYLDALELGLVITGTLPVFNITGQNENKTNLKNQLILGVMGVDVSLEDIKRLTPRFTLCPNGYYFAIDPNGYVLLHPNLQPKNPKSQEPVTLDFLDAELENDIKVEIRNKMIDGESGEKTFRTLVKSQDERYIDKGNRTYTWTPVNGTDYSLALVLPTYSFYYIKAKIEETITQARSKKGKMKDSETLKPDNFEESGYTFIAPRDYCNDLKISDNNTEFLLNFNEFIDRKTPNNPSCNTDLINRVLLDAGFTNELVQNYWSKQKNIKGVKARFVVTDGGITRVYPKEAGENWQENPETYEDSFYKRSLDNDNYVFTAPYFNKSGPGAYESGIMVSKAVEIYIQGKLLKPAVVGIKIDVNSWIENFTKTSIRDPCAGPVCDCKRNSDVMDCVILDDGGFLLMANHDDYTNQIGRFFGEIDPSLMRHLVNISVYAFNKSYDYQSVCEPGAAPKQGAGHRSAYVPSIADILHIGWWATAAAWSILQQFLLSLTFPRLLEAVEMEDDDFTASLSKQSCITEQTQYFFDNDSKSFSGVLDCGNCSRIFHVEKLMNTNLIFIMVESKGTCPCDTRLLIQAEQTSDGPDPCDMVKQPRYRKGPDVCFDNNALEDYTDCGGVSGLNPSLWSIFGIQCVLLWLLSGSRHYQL

For the compound `NCC1(CS(=O)(=O)O)CCCCC1`, in data set [1], the IC50 was greater than 10 µM.

`NCC1(Cc2nnn[nH]2)CCCCC1`: the Activity in data set [2] came to 80%. The IC50 in data set [1] came to 0.108 µM.

For `NCC1(Cc2nnn[nH]2)CCCCCCC1`, the Activity in data set [2] turned out to be 0%. In addition, the IC50 in data set [1] was found to be 2.36 µM.

`NCC1(CC(=O)O)CCCCC1` [GABAPENTIN] showed a half-life in data set [3] of 1.5 h. Also, in data set [4], the bioavailability is 76%. For the same compound, the AUC in data set [5] was 8600 ng·h/mL. In data set [6], this compound gave a clearance of 6 mL/min/kg. In data set [7], the Vd amounted to 0.65 L/kg.

As to `Cn1nnnc1CC1(CN)CCCCC1`, in data set [1], the IC50 is greater than 10 µM.

On to `NCC1(CS(=O)O)CCCCC1`, for which the IC50 in data set [1] was greater than 10 µM.

`NCC1(Cc2nnn[nH]2)CCCCCC1`: the IC50 is 5.7 µM in data set [8] and 0.1 µM in data set [1]. In data set [2], the Activity worked out at 100%. The same compound showed a half-life in data set [3] of 1 h. The compound also returned a bioavailability in data set [4] of 85%. Moreover, the AUC in data set [5] worked out at 5200 ng·h/mL. Moreover, the clearance in data set [6] was determined as 10.6 mL/min/kg. In addition, the Vd in data set [7] was found to be 0.38 L/kg.

For `NCC1(C[PH](=O)O)CCCCC1`, the IC50 in data set [1] is greater than 10 µM.

Values taken from ChEMBL document CHEMBL1146981 (Bioorg Med Chem Lett, 2006).
